Assay results from ChEMBL document CHEMBL4251633, “Design, synthesis, biological evaluation and cocrystal structures with tubulin of chiral β-lactam bridged combretastatin A-4 analogues as potent antitumor agents” (Eur J Med Chem, 2018).
Active and inactive are the calls of the source. No cut-off for these calls is given here.

Experiments:
[1] = system: MDA-MB-231; assay: Anticlonogenic activity against human MDA-MB-231 cells incubated for 48 hrs followed by replacement with fresh medium measured after 7 to 10 days by gentian violet staining based assay; format: functional, cell-based
[2] = Acute toxicity in ICR mouse assessed as survival rate at 25 mg/kg, ip measured on day 14 (reference value: 100%); format: organism-based; details: in vivo
[3] = system: HeLa; assay: Induction of apoptosis in human HeLa cells assessed as necrotic cells at 200 nM after 48 hrs by Annexin V-FITC/propidium iodide staining based flow cytometry (reference value: 0.9%); format: functional
[4] = system: HeLa; assay: Upregulation of Cyclin-B1 protein expression in human HeLa cells at 50 to 200 nM by Western blot analysis; format: functional, cell-based
[5] = system: HeLa; assay: Induction of apoptosis in human HeLa cells assessed as necrotic cells at 100 nM after 48 hrs by Annexin V-FITC/propidium iodide staining based flow cytometry (reference value: 0.9%); format: functional
[6] = system: HeLa; assay: Induction of apoptosis in human HeLa cells assessed as early apoptotic cells at 100 nM after 48 hrs by Annexin V-FITC/propidium iodide staining based flow cytometry (reference value: 0.7%); format: functional
[7] = system: Mus musculus; assay: Acute toxicity in ICR mouse assessed as death at 25 to 50 mg/kg, ip measured after 5 to 14 days; format: organism-based; details: in vivo
[8] = system: A2780; assay: Antitumor activity against human A2780 cells xenografted in Balb/c nude mouse assessed as tumor weight inhibition at 7.5 mg/kg, ip once in every 2 days measured up to 14 days; format: functional, organism-based
[9] = species on record: Sus scrofa; assay: Inhibition of pig brain tubulin polymerization measured every 1 min for 20 mins by spectrophotometric method
[10] = system: HeLa; assay: Induction of apoptosis in human HeLa cells assessed as late apoptotic cells at 100 nM after 48 hrs by Annexin V-FITC/propidium iodide staining based flow cytometry (reference value: 2%); format: functional
[11] = system: HeLa; assay: Induction of apoptosis in human HeLa cells assessed as early apoptotic cells at 200 nM after 48 hrs by Annexin V-FITC/propidium iodide staining based flow cytometry (reference value: 0.7%); format: functional
[12] = system: HeLa; assay: Induction of histone-H3 phosphorylation in human HeLa cells by Western blot analysis; format: cell-based
[13] = Acute toxicity in ICR mouse assessed as survival rate at 50 mg/kg, ip measured on day 14 (reference value: 100%); format: organism-based; details: in vivo
[14] = system: Mus musculus; assay: Acute toxicity in ICR mouse assessed as death at 25 to 50 mg/kg, ip measured after 4 days; format: organism-based; details: in vivo, 96 h
[15] = system: A2780; assay: Antitumor activity against human A2780 cells xenografted in Balb/c nude mouse assessed as isolated tumor weight inhibition at 7.5 mg/kg, ip once in every 2 days measured after 14 days; format: functional, organism-based
[16] = system: HeLa; assay: Induction of apoptosis in human HeLa cells assessed as live cells at 50 nM after 48 hrs by Annexin V-FITC/propidium iodide staining based flow cytometry (reference value: 96.5%); format: functional
[17] = system: HeLa; assay: Induction of apoptosis in human HeLa cells assessed as necrotic cells at 50 nM after 48 hrs by Annexin V-FITC/propidium iodide staining based flow cytometry (reference value: 0.9%); format: functional
[18] = system: Mus musculus; assay: Acute toxicity in ICR mouse assessed as death at 25 to 95 mg/kg, ip measured after 1 day; format: organism-based; details: in vivo, 24 h
[19] = Acute toxicity in ICR mouse assessed as survival rate at 95 mg/kg, ip measured on day 14 (reference value: 100%); format: organism-based; details: in vivo
[20] = system: HeLa; assay: Induction of apoptosis in human HeLa cells assessed as live cells at 100 nM after 48 hrs by Annexin V-FITC/propidium iodide staining based flow cytometry (reference value: 96.5%); format: functional
[21] = species on record: Homo sapiens; assay: Disruption of microtubule structure in human SKOV3 cells assessed as decrease in density at 100 nM after 24 hrs by DAPI staining based immunofluorescence assay; format: cell-based
[22] = system: Mus musculus; assay: Anti-vascular activity in Balb/c nude mouse assessed as inhibition of VEGF-induced capillary blood vessel formation using sc injected matrigel plug supplemented with 100 nM test compound mixed with VEGF and measured after 1 week by matrigel plug assay; format: functional, organism-based
[23] = Growth inhibition of HOSEC at 1 uM after 48 hrs by MTT assay relative to control; details: human, HOSEC cells; read-out: GI
[24] = system: A2780; assay: Antitumor activity against human A2780 cells xenografted in Balb/c nude mouse assessed as tumor volume inhibition at 7.5 mg/kg, ip once in every 2 days measured up to 14 days relative to control; format: functional
[25] = target: Mitotic checkpoint serine/threonine-protein kinase BUB1 beta (Homo sapiens) (UniProt O60566); assay: Induction of BubR1 hyperphosphorylation in human HeLa cells by Western blot analysis; format: cell-based
[26] = Acute toxicity in ICR mouse assessed as survival rate at 70 mg/kg, ip measured on day 14 (reference value: 100%); format: organism-based; details: in vivo
[27] = system: HeLa; assay: Induction of apoptosis in human HeLa cells after 48 hrs by Annexin V-FITC/propidium iodide staining based flow cytometry; format: functional, cell-based
[28] = system: HeLa; assay: Upregulation of Bax protein expression in human HeLa cells after 48 hrs by Western blot analysis; format: functional, cell-based
[29] = system: HeLa; assay: Induction of apoptosis in human HeLa cells assessed as early apoptotic cells at 50 nM after 48 hrs by Annexin V-FITC/propidium iodide staining based flow cytometry (reference value: 0.7%); format: functional
[30] = system: HeLa; assay: Induction of apoptosis in human HeLa cells assessed as late apoptotic cells at 50 nM after 48 hrs by Annexin V-FITC/propidium iodide staining based flow cytometry (reference value: 2%); format: functional
[31] = system: HeLa; assay: Induction of apoptosis in human HeLa cells assessed as late apoptotic cells at 200 nM after 48 hrs by Annexin V-FITC/propidium iodide staining based flow cytometry (reference value: 2%); format: functional
[32] = system: A2780; assay: Antitumor activity against human A2780 cells xenografted in Balb/c nude mouse assessed as induction of tumor necrosis at 7.5 mg/kg, ip once in every 2 days measured after 14 days by H and E staining based assay; format: functional, organism-based
[33] = system: Mus musculus; assay: Anti-vascular activity in Balb/c nude mouse assessed as inhibition of VEGF-induced capillary blood vessel formation by measuring reduction in hemoglobin level using sc injected matrigel plug supplemented with 100 nM test compound mixed with VEGF and measured after 1 week by matrigel plug assay; format: functional, organism-based
[34] = system: HUVEC; assay: Antiangiogenic activity against HUVEC assessed as disruption of capillary-like tube formation at 25 to 50 nM after 12 hrs by inverted microscopic method; format: functional, cell-based; details: Homo sapiens
[35] = system: Mus musculus; assay: Toxicity in Balb/c nude mouse xenografted with human A2780 cells assessed as abnormality in kidney at 7.5 mg/kg, ip once in every 2 days measured after 14 days by H and E staining based assay; format: organism-based; details: in vivo, 336 h
[36] = system: Mus musculus; assay: Acute toxicity in ICR mouse assessed as death at 25 to 95 mg/kg, ip measured after 2 days; format: organism-based; details: in vivo, 48 h
[37] = Acute toxicity in ICR mouse assessed as survival rate at 35 mg/kg, ip measured on day 14 (reference value: 100%); format: organism-based; details: in vivo
[38] = system: Mus musculus; assay: Toxicity in Balb/c nude mouse xenografted with human A2780 cells assessed as abnormality in spleen at 7.5 mg/kg, ip once in every 2 days measured after 14 days by H and E staining based assay; format: organism-based; details: in vivo, 336 h
[39] = system: HeLa; assay: Induction of apoptosis in human HeLa cells assessed as live cells at 200 nM after 48 hrs by Annexin V-FITC/propidium iodide staining based flow cytometry (reference value: 96.5%); format: functional
[40] = system: Mus musculus; assay: Toxicity in Balb/c nude mouse xenografted with human A2780 cells assessed as abnormality in liver at 7.5 mg/kg, ip once in every 2 days measured after 14 days by H and E staining based assay; format: organism-based; details: in vivo, 336 h
[41] = system: HeLa; assay: Upregulation of p53 protein expression in human HeLa cells after 48 hrs by Western blot analysis; format: functional, cell-based
[42] = system: HeLa; assay: Upregulation of cleaved PARP1 protein expression in human HeLa cells after 48 hrs by Western blot analysis; format: functional, cell-based
[43] = system: Mus musculus; assay: Acute toxicity in ICR mouse assessed as death at 25 mg/kg, ip measured after 3 days; format: organism-based; details: in vivo, 72 h
[44] = system: HeLa; assay: Inhibition of alpha-tubulin polymerization in human HeLa cells assessed as increase in ratio of supernatant faction to pellet fraction at 500 nM after 6 hrs by Western blot analysis; format: cell-based
[45] = system: Mus musculus; assay: Toxicity in Balb/c nude mouse xenografted with human A2780 cells assessed as body weight loss at 7.5 mg/kg, ip once in every 2 days measured up to 14 days; format: organism-based; details: in vivo
[46] = system: HeLa; assay: Cell cycle arrest in human HeLa cells assessed as accumulation at G2/M-phase at 50 to 100 nM after 24 hrs by propidium iodide staining based flow cytometry; format: functional

Mitotic checkpoint serine/threonine-protein kinase BUB1 beta (Homo sapiens), sequence (O60566 whole entry): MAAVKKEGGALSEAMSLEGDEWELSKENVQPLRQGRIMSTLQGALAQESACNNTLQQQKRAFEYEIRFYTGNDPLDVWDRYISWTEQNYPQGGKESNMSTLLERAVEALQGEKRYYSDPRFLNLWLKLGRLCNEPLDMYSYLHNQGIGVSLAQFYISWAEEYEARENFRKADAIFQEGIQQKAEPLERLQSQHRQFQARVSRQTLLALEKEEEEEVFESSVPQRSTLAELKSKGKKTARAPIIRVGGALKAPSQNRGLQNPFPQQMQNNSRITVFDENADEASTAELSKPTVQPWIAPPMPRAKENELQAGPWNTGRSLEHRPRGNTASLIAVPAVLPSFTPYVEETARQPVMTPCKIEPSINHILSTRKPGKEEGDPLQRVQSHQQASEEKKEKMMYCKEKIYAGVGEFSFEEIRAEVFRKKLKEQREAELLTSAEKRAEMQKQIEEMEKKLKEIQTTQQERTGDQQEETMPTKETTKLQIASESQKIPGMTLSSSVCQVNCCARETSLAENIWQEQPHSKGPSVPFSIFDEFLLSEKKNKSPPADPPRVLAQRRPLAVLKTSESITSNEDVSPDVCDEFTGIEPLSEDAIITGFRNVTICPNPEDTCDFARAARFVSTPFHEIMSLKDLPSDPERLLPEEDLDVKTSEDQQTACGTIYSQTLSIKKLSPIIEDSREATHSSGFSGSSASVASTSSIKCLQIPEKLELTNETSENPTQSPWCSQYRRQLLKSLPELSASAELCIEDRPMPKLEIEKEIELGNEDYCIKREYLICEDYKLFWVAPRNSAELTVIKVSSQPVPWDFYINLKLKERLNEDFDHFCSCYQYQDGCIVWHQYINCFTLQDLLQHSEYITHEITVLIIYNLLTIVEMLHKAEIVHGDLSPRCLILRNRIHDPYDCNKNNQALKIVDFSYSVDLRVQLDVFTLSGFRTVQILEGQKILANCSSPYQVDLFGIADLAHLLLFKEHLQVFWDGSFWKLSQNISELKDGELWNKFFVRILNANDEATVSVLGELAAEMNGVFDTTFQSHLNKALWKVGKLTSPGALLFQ

Structure (SMILES): COc1ccc([C@H]2[C@H](CO)C(=O)N2c2cc(OC)c(OC)c(OC)c2)cc1O
- Activity [1]: Dose-dependent effect
- survival at 14 day [2]: 100%
- Activity [3]: 6.7%
- Activity [4]: Active
- Activity [5]: 6.1%
- Activity [6]: 32.9%
- Activity [7]: Non-Toxic
- inhibition [8]: Active
- inhibition [9]: Dose-dependent effect
- Activity [10]: 24.6%
- Activity [11]: 36.1%
- Activity [12]: Dose-dependent effect
- survival at 14 day [13]: 90%
- Activity [14]: Non-Toxic
- inhibition [15]: Active
- Activity [16]: 48.2%
- Activity [17]: 13%
- Activity [18]: Non-Toxic
- survival at 14 day [19]: 20%
- Activity [20]: 36.3%
- Activity [21]: Active
- inhibition [22]: Active
- inhibition at 48 h, 1 µM [23]: < 50%
- inhibition in vivo at 7.5 mg/kg [24]: 78.9%
- Activity [25]: Dose-dependent effect
- survival at 14 day [26]: 30%
- Activity [27]: Dose-dependent effect
- Activity [28]: Dose-dependent effect
- Activity [29]: 18.6%
- Activity [30]: 20.1%
- Activity [31]: 34.6%
- Activity [32]: Active
- inhibition [33]: Active
- Activity [34]: Active
- Activity [35]: Non-Toxic
- Activity [36]: Non-Toxic
- survival at 14 day [37]: 90%
- Activity [38]: Non-Toxic
- Activity [39]: 22.6%
- Activity [40]: Non-Toxic
- Activity [41]: Dose-dependent effect
- Activity [42]: Dose-dependent effect
- Activity [43]: Non-Toxic
- tubulin polymerization inhibition (active/inactive) [44]: Active
- Activity [45]: Non-Toxic
- Activity [46]: Active
